How the values were obtained:
[1] = biological target: PSMA (Homo sapiens, UniProt Q04609); conditions: irreversible inhibitor; cited from earlier work
[2] = Aqueous solubility; type: physicochemical
[3] = biological target: c-Met (Homo sapiens, UniProt P08581); assay: c-Met inhibition IC50; type: biochemical; conditions: read-out: c-Met inhibitory activity IC50
[4] = tested on: PC3-PIP PSMA (+) cells; assay: CellTiter-Glo cell viability; type: cell-based, human; conditions: 72 H, equivalent drug bases

Chain of PSMA (Q04609 whole entry): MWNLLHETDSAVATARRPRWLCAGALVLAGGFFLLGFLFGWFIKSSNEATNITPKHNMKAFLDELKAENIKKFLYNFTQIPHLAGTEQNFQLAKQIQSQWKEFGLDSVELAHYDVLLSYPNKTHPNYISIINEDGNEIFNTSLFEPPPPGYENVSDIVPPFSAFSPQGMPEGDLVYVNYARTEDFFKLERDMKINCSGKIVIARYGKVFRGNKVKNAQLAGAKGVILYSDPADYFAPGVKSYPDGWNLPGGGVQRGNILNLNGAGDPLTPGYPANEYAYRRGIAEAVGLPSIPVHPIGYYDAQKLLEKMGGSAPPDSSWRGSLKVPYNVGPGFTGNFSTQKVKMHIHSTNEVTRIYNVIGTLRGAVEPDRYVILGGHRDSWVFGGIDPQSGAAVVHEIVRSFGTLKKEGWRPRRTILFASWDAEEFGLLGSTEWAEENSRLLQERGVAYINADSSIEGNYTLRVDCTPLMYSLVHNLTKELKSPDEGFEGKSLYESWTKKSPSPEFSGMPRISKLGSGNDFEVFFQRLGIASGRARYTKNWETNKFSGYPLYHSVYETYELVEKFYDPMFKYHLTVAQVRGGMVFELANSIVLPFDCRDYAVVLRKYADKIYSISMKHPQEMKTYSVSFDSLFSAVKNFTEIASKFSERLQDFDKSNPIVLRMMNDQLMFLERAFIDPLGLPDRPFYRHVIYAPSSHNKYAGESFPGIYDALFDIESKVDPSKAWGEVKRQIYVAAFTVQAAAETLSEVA
Chain of c-Met (P08581 25-1390): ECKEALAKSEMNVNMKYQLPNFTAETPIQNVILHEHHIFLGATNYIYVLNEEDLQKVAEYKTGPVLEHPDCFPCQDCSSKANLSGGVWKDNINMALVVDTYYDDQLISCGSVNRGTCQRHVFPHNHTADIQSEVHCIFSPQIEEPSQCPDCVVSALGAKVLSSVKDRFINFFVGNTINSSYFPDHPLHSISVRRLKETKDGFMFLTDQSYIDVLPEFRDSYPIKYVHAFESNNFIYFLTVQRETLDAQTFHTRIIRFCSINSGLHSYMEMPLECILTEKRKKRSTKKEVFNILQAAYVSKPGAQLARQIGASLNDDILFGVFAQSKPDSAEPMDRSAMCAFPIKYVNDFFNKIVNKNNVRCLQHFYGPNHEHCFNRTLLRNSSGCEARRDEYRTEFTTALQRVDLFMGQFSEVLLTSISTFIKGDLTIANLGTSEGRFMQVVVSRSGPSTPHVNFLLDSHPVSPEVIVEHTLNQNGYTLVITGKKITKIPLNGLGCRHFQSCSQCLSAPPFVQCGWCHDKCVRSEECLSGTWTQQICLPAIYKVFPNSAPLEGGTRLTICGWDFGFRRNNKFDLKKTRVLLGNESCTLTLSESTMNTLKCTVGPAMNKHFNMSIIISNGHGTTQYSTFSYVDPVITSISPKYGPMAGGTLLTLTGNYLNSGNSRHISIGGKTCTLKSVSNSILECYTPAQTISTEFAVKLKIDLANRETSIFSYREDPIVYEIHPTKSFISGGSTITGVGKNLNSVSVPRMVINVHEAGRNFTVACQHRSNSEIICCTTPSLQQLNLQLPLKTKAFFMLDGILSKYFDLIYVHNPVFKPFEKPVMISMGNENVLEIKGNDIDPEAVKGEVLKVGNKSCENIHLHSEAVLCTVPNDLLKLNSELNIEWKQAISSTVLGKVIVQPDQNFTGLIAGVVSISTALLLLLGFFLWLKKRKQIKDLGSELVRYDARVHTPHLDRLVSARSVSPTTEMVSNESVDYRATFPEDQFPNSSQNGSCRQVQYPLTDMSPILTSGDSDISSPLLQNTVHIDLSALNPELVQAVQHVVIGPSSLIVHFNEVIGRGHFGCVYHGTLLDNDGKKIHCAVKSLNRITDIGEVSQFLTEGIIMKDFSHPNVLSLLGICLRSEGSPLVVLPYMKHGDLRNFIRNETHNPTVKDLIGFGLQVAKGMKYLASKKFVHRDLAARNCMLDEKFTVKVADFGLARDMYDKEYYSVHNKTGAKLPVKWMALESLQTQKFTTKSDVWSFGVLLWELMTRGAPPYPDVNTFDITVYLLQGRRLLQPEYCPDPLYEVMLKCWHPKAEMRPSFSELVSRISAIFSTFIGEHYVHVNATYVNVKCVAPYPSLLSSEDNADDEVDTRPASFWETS

Row | SMILES | PSMA affinity [1] | aqueous solubility [2] | IC50 [3] | anti-proliferative IC50 [4]
1 | O=C(O)CC[C@H](NP(=O)(O)OCCC[C@H](NC(=O)CC[C@H](NC(=O)CCCCCNC(=O)c1ccc(F)cc1)C(=O)O)C(=O)O)C(=O)O [CTT 1057] | nanomolar affinity |  |  | 
2 | COc1cc2nccc(Oc3ccc(NC(=O)C4(C(=O)Nc5ccc(F)cc5)CC4)cc3)c2cc1OC [Cabo, cabozantinib, reference compound] |  | poor aqueous solubility |  | 
3 | COc1cc2c(Oc3ccc(NC(=O)C4(C(=O)Nc5ccc(F)cc5)CC4)cc3)ccnc2cc1O [Cabo-OH] |  | poor aqueous solubility | 0.0263 µM | 77.30 ± 4.35 µg/mL

Source: article PMC12716163 (Nanoscale, 2024)
